Reference: ChEMBL document CHEMBL3779774, “Efficient synthesis of novel disubstituted pyrido[3,4-b]pyrazines for the design of protein kinase inhibitors” (Medchemcomm, 2016)

How the values were obtained:
[1] = target: Homeodomain-interacting protein kinase 1 (Homo sapiens, UniProt Q86Z02); assay: Inhibition of N-terminal His6-tagged recombinant human HIPK1 (158 to 555 residues) after 1 hr by Alphascreen assay
[2] = target: Mitogen-activated protein kinase 1 (Homo sapiens, UniProt P28482); assay: Inhibition of recombinant ERK2 (unknown origin) after 1 hr by Alphascreen assay
[3] = target: Serine/threonine-protein kinase pim-1 (Homo sapiens, UniProt P11309); assay: Inhibition of N-terminal GST-tagged recombinant human full length Pim-1 expressed in Escherichia coli after 1 hr by Alphascreen assay
[4] = target: High affinity nerve growth factor receptor (Homo sapiens, UniProt P04629); assay: Inhibition of N-terminal His6-tagged human recombinant TrkA (440 to end residues) expressed in baculovirus infected insect Sf21 cells after 1 hr by Alphascreen assay
[5] = target: Tyrosine-protein kinase Yes (Homo sapiens, UniProt P07947); assay: Inhibition of N-terminal His6-tagged human recombinant Yes expressed in baculovirus infected insect Sf21 cells after 1 hr by Alphascreen assay
[6] = target: Tyrosine-protein kinase ABL1 (Homo sapiens, UniProt P00519); assay: Inhibition of recombinant c-Abl (unknown origin) after 1 hr by Alphascreen assay
[7] = target: Vascular endothelial growth factor receptor 2 (Homo sapiens, UniProt P35968); assay: Inhibition of N-terminal His6-tagged human recombinant KDR (790 to end residues) expressed in baculovirus infected insect Sf21 cells after 1 hr by Alphascreen assay
Vascular endothelial growth factor receptor 2, sequence (P35968 whole entry): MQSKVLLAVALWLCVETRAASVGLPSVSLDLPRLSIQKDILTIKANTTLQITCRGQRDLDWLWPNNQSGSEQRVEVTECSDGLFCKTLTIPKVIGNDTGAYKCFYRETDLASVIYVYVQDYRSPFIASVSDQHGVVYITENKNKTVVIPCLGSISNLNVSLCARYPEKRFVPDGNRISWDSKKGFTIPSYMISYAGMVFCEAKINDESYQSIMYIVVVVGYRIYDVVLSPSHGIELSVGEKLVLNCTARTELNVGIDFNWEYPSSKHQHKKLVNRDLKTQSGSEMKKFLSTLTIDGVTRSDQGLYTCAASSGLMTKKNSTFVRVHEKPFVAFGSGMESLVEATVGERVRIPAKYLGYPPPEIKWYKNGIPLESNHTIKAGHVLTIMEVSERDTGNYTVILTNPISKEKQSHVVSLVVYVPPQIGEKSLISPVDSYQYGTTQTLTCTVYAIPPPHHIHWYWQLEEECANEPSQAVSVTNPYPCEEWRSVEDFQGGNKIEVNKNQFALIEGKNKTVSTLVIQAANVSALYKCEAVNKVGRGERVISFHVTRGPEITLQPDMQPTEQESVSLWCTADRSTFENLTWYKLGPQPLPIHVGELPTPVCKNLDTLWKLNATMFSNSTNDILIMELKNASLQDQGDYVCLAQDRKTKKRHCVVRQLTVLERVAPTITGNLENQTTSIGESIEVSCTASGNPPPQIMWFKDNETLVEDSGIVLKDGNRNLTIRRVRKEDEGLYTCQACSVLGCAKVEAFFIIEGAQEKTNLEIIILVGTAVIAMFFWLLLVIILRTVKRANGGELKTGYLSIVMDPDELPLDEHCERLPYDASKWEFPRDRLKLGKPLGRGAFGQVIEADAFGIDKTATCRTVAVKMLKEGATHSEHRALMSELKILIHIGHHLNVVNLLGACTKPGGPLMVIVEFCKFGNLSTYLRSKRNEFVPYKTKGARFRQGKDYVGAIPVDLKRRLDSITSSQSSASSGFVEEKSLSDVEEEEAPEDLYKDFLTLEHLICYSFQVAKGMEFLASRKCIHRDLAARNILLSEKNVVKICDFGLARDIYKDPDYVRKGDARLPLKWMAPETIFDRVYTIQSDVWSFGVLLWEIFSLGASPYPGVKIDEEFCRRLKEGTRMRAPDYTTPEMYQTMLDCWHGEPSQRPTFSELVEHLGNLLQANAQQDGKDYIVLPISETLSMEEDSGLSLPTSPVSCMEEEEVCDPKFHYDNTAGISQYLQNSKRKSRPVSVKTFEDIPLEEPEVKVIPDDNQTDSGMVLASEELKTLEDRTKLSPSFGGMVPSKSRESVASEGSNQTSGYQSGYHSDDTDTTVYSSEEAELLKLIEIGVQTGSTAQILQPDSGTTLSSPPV

Homeodomain-interacting protein kinase 1, sequence (Q86Z02 whole entry, the tested form may be a part): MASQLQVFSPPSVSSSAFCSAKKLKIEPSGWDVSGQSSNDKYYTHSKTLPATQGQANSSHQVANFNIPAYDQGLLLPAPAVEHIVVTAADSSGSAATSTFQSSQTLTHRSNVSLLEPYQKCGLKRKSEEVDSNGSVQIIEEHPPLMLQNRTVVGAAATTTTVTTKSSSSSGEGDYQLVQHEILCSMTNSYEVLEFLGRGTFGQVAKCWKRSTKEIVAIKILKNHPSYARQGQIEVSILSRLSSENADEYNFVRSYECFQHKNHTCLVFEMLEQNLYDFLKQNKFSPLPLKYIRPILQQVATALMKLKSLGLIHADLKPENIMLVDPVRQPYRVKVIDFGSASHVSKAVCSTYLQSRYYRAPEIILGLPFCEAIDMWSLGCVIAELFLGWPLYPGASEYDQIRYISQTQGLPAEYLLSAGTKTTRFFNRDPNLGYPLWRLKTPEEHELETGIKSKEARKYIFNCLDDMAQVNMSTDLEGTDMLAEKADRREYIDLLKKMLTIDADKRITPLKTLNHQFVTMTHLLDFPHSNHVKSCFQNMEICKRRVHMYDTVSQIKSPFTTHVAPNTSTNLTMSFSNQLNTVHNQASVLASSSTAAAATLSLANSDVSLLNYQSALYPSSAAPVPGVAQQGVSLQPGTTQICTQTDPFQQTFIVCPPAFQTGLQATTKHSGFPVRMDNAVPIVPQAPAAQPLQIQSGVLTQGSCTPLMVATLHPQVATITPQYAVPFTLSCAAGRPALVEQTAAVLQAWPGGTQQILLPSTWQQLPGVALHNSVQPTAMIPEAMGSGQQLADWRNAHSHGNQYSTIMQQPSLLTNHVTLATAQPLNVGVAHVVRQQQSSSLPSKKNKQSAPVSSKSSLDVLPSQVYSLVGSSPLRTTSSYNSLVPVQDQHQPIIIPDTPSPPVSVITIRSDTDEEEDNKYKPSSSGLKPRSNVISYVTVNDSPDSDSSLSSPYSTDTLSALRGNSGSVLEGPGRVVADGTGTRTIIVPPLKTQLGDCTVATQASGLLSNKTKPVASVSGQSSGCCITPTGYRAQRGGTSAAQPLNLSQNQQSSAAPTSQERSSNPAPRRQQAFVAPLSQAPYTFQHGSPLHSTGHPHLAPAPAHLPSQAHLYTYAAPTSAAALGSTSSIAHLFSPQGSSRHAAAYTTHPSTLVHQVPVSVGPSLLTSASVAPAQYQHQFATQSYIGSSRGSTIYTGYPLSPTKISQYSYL
Tyrosine-protein kinase ABL1, sequence (P00519 whole entry): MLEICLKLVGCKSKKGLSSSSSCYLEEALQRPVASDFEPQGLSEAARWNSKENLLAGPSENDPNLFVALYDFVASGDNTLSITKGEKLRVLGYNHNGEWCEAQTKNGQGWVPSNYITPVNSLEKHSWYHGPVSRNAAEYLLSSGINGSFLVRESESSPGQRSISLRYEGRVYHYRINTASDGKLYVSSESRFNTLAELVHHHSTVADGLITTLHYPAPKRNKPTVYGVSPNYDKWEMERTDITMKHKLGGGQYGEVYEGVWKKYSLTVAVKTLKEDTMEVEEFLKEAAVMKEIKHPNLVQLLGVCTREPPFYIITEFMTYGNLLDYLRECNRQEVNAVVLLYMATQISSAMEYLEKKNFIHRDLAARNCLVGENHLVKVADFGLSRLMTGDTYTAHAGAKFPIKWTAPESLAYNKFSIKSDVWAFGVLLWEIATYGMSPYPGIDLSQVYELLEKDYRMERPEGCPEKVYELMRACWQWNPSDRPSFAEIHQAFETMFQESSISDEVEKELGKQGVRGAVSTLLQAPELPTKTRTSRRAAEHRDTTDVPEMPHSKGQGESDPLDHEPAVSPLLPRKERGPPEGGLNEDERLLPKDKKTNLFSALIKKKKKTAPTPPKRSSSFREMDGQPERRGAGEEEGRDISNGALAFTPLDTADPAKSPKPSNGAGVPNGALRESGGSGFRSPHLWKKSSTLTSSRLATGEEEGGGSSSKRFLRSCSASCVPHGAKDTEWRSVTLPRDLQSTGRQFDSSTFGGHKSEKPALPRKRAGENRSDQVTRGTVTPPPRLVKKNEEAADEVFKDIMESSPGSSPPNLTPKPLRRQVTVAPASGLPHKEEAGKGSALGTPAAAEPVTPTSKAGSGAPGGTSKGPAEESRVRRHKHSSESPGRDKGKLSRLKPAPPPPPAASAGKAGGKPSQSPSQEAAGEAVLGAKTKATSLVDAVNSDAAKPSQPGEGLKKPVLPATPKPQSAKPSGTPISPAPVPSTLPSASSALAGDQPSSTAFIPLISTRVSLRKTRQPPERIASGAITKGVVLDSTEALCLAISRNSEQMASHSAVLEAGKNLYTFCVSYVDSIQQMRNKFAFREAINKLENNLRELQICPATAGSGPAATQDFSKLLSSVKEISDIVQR
Mitogen-activated protein kinase 1, sequence (P28482 whole entry): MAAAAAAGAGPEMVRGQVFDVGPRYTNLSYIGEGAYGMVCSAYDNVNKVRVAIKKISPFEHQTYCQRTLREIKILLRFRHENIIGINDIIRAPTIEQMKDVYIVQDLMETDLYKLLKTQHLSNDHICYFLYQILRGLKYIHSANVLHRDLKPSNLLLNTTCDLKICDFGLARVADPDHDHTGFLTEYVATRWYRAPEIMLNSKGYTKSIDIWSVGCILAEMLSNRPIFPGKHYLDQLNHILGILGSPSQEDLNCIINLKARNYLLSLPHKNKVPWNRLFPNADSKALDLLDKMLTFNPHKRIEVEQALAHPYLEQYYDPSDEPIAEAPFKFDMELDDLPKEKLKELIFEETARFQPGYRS
Tyrosine-protein kinase Yes, sequence (P07947 whole entry): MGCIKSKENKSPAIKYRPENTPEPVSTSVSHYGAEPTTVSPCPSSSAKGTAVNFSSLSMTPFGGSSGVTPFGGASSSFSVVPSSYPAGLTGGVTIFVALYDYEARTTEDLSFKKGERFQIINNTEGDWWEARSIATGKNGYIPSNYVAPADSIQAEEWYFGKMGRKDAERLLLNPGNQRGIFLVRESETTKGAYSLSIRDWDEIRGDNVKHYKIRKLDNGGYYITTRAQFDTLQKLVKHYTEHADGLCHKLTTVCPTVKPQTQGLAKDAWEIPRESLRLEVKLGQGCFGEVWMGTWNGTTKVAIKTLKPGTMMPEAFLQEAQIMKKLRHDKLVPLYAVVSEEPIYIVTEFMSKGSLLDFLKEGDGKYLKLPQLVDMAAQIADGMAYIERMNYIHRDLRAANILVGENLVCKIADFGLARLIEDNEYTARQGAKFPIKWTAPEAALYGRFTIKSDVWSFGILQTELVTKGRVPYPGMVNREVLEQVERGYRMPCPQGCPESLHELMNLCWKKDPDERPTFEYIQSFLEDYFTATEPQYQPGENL
Serine/threonine-protein kinase pim-1, sequence (P11309 whole entry): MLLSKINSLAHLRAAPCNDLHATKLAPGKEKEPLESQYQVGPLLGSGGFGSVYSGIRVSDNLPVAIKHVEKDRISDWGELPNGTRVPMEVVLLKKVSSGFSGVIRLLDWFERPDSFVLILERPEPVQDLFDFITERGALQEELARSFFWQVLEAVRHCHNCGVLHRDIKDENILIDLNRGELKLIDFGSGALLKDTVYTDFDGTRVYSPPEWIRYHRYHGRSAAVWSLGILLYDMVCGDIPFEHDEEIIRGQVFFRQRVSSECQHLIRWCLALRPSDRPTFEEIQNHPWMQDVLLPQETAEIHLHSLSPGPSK

Row | SMILES | IC50 [1] | IC50 [2] | IC50 [3] | IC50 [4] | IC50 [5] | IC50 [6] | IC50 [7]
1 | c1ccc(Nc2cncc3ncc(-c4ccc(N5CCCCC5)cc4)nc23)cc1 | 11.8 µM | 12.2 µM | 31.2 µM | 7.79 µM | 8.82 µM | 6.84 µM | 11.1 µM
2 | COc1ccc(-c2cnc3c(Nc4ccc(N5CCOCC5)cc4)nccc3n2)cc1 | > 100 µM | > 100 µM | > 100 µM | 6.69 µM | 7.07 µM | 5.37 µM | 12 µM
3 | COc1ccc(-c2cnc3cncc(Nc4cc(OC)ccc4OC)c3n2)cc1 | 13.1 µM | 3.79 µM | 8.57 µM | 1.45 µM | 2.01 µM | 1.37 µM | 1.6 µM
4 | c1ccc(-c2cnc3cncc(Nc4ccc(N5CCOCC5)cc4)c3n2)cc1 | 8.15 µM | 8.43 µM | 8.3 µM | 5.32 µM | 5.11 µM | 5.27 µM | 6.12 µM
5 | c1ccc(-c2cnc3c(Nc4ccc(N5CCOCC5)cc4)nccc3n2)cc1 | > 100 µM | > 100 µM | > 100 µM | 13.7 µM | 12.6 µM | 11.5 µM | 16 µM
6 | c1ccc(-c2cnc3cncc(Nc4ccc(N5CCCCC5)cc4)c3n2)cc1 | 2.59 µM | 2.02 µM | 2.61 µM | 3.23 µM | 5.56 µM | 2.16 µM | 1.56 µM
7 | CCNC(=O)Nc1nccc2nc(-c3ccccc3)cnc12 | > 100 µM | > 100 µM | > 100 µM | > 100 µM | > 100 µM | 30.8 µM | > 100 µM
8 | COc1ccc(-c2cnc3c(Nc4ccc(N5CCCCC5)cc4)nccc3n2)cc1 | 7.25 µM | 1.44 µM | 11.8 µM | 1.44 µM | 1.02 µM | 1.34 µM | 1.99 µM
9 | c1ccc(-c2cnc3cc(Nc4ccc(N5CCCCC5)cc4)ncc3n2)cc1 | > 100 µM | > 100 µM | > 100 µM | > 100 µM | 27.2 µM | 12.9 µM | > 100 µM
10 | c1ccc(-c2cnc3cnc(Nc4ccc(N5CCCCC5)cc4)cc3n2)cc1 | 30.5 µM | 23.2 µM | 27.4 µM | 9.24 µM | 23.1 µM | 8.71 µM | 17.1 µM
11 | c1ccc(-c2cnc3c(Nc4ccc(N5CCCCC5)cc4)nccc3n2)cc1 | 0.922 µM | 1.42 µM | 4.91 µM | 5.81 µM | 8.1 µM | 2.66 µM | 1.1 µM
12 | COc1ccc(-c2cnc3cncc(Nc4ccc(N5CCCCC5)cc4)c3n2)cc1 | 3.21 µM | 3.13 µM | 2.83 µM | 3.72 µM | 5.34 µM | 2.27 µM | 2.05 µM
13 | COc1ccc(-c2cnc3cncc(Nc4ccc(N5CCOCC5)cc4)c3n2)cc1 | 4.02 µM | 4.26 µM | 4.4 µM | 2.48 µM | 2.41 µM | 2.49 µM | 3.31 µM
14 | c1ccc(-c2cnc3cnc(Nc4ccc(N5CCOCC5)cc4)cc3n2)cc1 | > 100 µM | > 100 µM | > 100 µM | > 100 µM | > 100 µM | > 100 µM | > 100 µM

Next, values leading:

Row | IC50 [1] | IC50 [2] | IC50 [3] | IC50 [4] | IC50 [5] | IC50 [6] | IC50 [7] | SMILES
15 | 12.7 µM | 16.6 µM | 11.3 µM | 9.36 µM | 11.1 µM | 7.71 µM | 8.84 µM | COc1cccc(Nc2cncc3ncc(-c4ccc(N5CCCCC5)cc4)nc23)c1
16 | 2.73 µM | 2.34 µM | 2.81 µM | 3.42 µM | 6.21 µM | 2.54 µM | 2.06 µM | c1ccc(-c2cnc3c(Nc4ccc(N5CCCCC5)cc4)cncc3n2)cc1
17 | > 100 µM | > 100 µM | > 100 µM | > 100 µM | > 100 µM | > 100 µM | > 100 µM | COc1cccc(Nc2nccc3nc(-c4ccccc4)cnc23)c1
18 | > 100 µM | > 100 µM | > 100 µM | > 100 µM | > 100 µM | > 100 µM | > 100 µM | C#Cc1cccc(Nc2nccc3nc(-c4ccccc4)cnc23)c1
19 | > 100 µM | > 100 µM | > 100 µM | > 100 µM | > 31.6 µM | > 100 µM | > 100 µM | Fc1ccc(Nc2cncc3nc(-c4ccccc4)cnc23)cc1Cl
20 | > 100 µM | > 31.6 µM | > 100 µM | > 100 µM | > 100 µM | > 100 µM | > 31.6 µM | C=CCNC(=O)Nc1cncc2nc(-c3ccccc3)cnc12
21 | > 100 µM | > 31.6 µM | > 31.6 µM | > 100 µM | > 31.6 µM | > 100 µM | > 100 µM | COc1cccc(NC(=O)Nc2cncc3nc(-c4ccccc4)cnc23)c1
22 | > 100 µM | > 100 µM | > 100 µM | > 100 µM | 20.4 µM | 16.6 µM | > 31.6 µM | COc1ccccc1Nc1nccc2nc(-c3ccccc3)cnc12
23 | > 100 µM | > 100 µM | > 100 µM | > 100 µM | > 31.6 µM | 7.91 µM | > 100 µM | COc1cccc(Nc2cncc3nc(-c4ccc(N5CCCCC5)cc4)cnc23)c1
24 | > 100 µM | > 100 µM | > 100 µM | > 100 µM | 31.5 µM | > 100 µM | > 100 µM | COc1ccc(Nc2nccc3nc(-c4ccccc4)cnc23)cc1
25 | > 100 µM | > 100 µM | > 100 µM | > 100 µM | > 31.6 µM | > 100 µM | > 100 µM | COc1cccc(Nc2cc3nc(-c4ccccc4)cnc3cn2)c1
26 | > 100 µM | > 100 µM | > 100 µM | > 100 µM | > 31.6 µM | 22.5 µM | > 100 µM | c1ccc(Nc2cncc3nc(-c4ccc(N5CCCCC5)cc4)cnc23)cc1
27 | 20.4 µM | 5.25 µM | 16.4 µM | > 100 µM | 22.1 µM | 25.1 µM | > 100 µM | COc1ccc(NC(=O)Nc2cncc3nc(-c4ccccc4)cnc23)cc1
28 | > 100 µM | > 100 µM | > 100 µM | > 100 µM | > 31.6 µM | > 100 µM | > 100 µM | COc1cccc(NC(=O)Nc2nccc3nc(-c4ccccc4)cnc23)c1
